The data set in a line: pH of Oxonia Active after addition of the additive. The data set is classed as physicochemical. Particulars: for effect of the additive on the product's pH: Oxonia Active; for pH: additive dissolved in Oxonia Active. As for the experimental part:
The ability to remove odor from a concentrated peracetic acid product was evaluated. Oxonia Active is a concentrated peracetic acid product available from Ecolab, Inc. (St. Paul, Minn.). The commercial product has about 6% peracetic acid and 22% hydrogen peroxide.
Urea was dissolved into the Oxonia Active at various molar ratios to the peracetic acid level and the resulting effect on the product's odor was observed.

For the compound `NC(N)=O` [Urea], the “effect of the additive on the product's pH” value is “did not significantly change”. Where the note is “molar POAA/additive 0.5/1”, this compound returned a pH of 1.38. Where the note is “molar POAA/additive 1/0.25”, the pH is listed as 1.10. This compound also yielded a pH (molar POAA/additive 1/0.50) of 1.10. Further, under “molar POAA/additive 1/1”, the pH is 1.16.
As for Ammonium carbonate, the “effect of the additive on the product's pH” value is given as “raised the pH”. Where the note is “molar POAA/additive 0.5/1”, this compound came in with a pH of 7.00. The compound further gave a pH (molar POAA/additive 1/0.50) of 3.64. Where the note is “molar POAA/additive 1/1”, this compound came in with a pH of 5.90.

Values taken from patent publication US20140121272A1, “DEODORIZATION OF PEROXYCARBOXYLIC ACIDS USING CHAOTROPIC AGENTS” (ECOLAB USA INC., priority 2012, published 2014).
